According to paper PMC3280428 (Journal of Molecular Biology, 2011):
“And” between values parts separate entries of the source, which are not always exact repeats. Equal values may be shown once.

How the values were obtained:
Cytotoxicity [1] = assay type: cell-based; details: human
[2] = molecular target: T1, KIAA1718 Jumonji domain (residues 92–488) (Homo sapiens, UniProt Q6ZMT4); experiment: Mass-spectrometry-based demethylation inhibition assay, KIAA1718 Jumonji domain; assay type: biochemical
T1 sequence (Q6ZMT4 92-488): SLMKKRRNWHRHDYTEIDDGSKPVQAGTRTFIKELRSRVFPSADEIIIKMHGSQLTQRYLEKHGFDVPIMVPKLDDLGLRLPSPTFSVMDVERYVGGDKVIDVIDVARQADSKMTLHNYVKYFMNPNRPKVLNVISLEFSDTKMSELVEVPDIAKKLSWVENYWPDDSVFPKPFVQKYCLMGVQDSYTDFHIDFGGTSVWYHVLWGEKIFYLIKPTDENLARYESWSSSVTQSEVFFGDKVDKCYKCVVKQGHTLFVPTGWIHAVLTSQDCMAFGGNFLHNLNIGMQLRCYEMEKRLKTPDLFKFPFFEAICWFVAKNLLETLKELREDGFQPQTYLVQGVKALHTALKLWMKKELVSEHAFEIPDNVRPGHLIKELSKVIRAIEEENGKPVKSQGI

Cytotoxicity [3] = assay type: cell-based; details: 129S2/SvPasCrl, mouse

In the case of `COc1cc2nc(N3CCCN(C)CC3)nc(NC3CCN(Cc4ccccc4)CC3)c2cc1OC` [BIX-01294], the CC50 at 24 h (Cytotoxicity [1]) is reported as 3.2 µM, the IC50 [2] is reported as 16.5 µM and ~16.5 µM and the Ki [2] is reported as 15.3 µM. It also gave a CC50 at 24 h (Cytotoxicity [3]) of 7.4 µM.
